# In a melting point compilation (Tetko et al.; mined from patent text by program, amines drawn as free bases though some values may be those of a salt):
row,melting point [°C],SMILES
1,79 to 80,COc1ccc(COCc2nc(C(C)C)c(Sc3cc(Cl)cc(Cl)c3)n2C)cc1
2,187 to 188,CCCCCS(=O)(=O)NC(=O)/C=C/c1ccc(OCC(C)=O)cc1Oc1ncc(C(F)(F)F)cc1Cl
3,84 to 85,COC(=O)CCc1cnoc1-c1ccc2c(c1)OCO2
4,136 to 139,Cc1cnn(C(C)(C)C(=O)N(C)C)c1-c1ccccc1
5,268 to 269,CN(C)c1ccc2cc(-c3ccn4ccnc4c3C#N)ccc2c1
6,130 to 132,Cn1nc(-c2c(Cl)cccc2Cl)nc1-c1ccc(Br)s1
7,> 300,O=C(O)C1CCc2cccc3c(=O)[nH]c(=O)n1c23 (stereo not drawn)
8,172 to 176,COc1cc2c(cc1OS(N)(=O)=O)CC(C)(C)N(C(=O)c1cc(OC)c(OC)c(OC)c1)C2
9,98 to 100,CC(C)S(=O)(=O)Nc1ccc(Br)cc1
10,> 300,O=c1[nH]c2ccc(Cl)cc2n2ccnc12
11,90 to 91,O=C(O)CCCC/C=C(\c1cccnc1)c1ccc2c(c1)OCO2
12,102 to 105,Cc1ccc(C(=O)c2c(C)cc(C)cc2O)cc1
13,184 to 186,CNc1sccc1C(=O)c1ccccc1F
14,140 to 150,O=C(Cn1c(-c2cccc(Cl)c2)nc2cccnc21)N1CCCCC1
15,176 to 193,CC=C1CCC2C3CCC4CC(O)C(OCC)CC4(C)C3C(=NO)CC12C (stereo not drawn)
16,73 to 75,COc1ccc(/C=N/Nc2nccc(C(F)(F)F)n2)cc1OC1CCCC1
17,70 to 72,COc1cncnc1N1CCN(C(=O)OC(C)(C)C)CC1C (stereo not drawn)
18,78 to 80,CC(=C[N+](=O)[O-])NCCN(C)Cc1ccc(Cl)nc1
19,160 to 162,O=C1CCC(c2ccc([N+](=O)[O-])cc2)CC1
20,91 to 93,CN1CCCC1CCNNC(=O)N1CCC(c2[nH]nc3c2C(=O)c2c(NC(=O)NN4CCOCC4)cccc2-3)CC1 (stereo not drawn)

row,melting point [°C],SMILES
1,171 to 172,COc1ccc(CCCC(=O)NC(NC(Cc2ccccc2C)=NC#N)C(C)(C)C)cc1 (stereo not drawn)
2,90 to 92,CC(C)(C)OC(=O)ON=C(C#N)c1cccc2ccccc12
3,109 to 113,CCc1cn(C2CCC(CO)O2)c(=O)[nH]c1=O (stereo not drawn)
4,125 to 127,CC(C)N1CCN(CCN2CCN(c3noc4cc(F)ccc34)CC2)C1=O
5,110,COC(C)=CC(=O)Nc1cccc(Br)c1
6,287 to 290,Cn1c(=O)c2ncn3c2n(c1=O)CC=C3c1cccc(C(F)(F)F)c1
7,86 to 88,c1ccc2c(c1)nc1n2CCC1
8,130,CN(CC(=O)OC(C)(C)C)Cc1ccc(CCn2cnc3cc(-c4ccc(Cl)cc4)sc3c2=O)cc1
9,85 to 86,O=[N+]([O-])c1cc(O)c(F)cc1Cl
10,122 to 123,CCOC(=O)c1cc(C(=O)OC)c(CCN2C(=O)c3ccccc3C2=O)o1
11,129 to 130,Nc1cc(F)c(NCC(O)CO)cc1[N+](=O)[O-] (stereo not drawn)
12,203 to 205,Cn1c(C=NO)cnc1[N+](=O)[O-]
13,128 to 130,COc1cc(O)c([N+](=O)[O-])c2ccccc12
14,182 to 184,CCN1C(=O)Nc2ccc(Cl)cc2C1(O)c1ccccc1 (stereo not drawn)
15,65,Clc1cnc(Sc2cccs2)nc1
16,124,CC(=O)Nc1cccc2c1C(=O)OC2(C)C
17,127 to 129,CCOC(=O)n1nc(Oc2c(F)cc(C(F)(F)F)cc2Cl)cc1C
18,106 to 109,C=CCN1CC(=O)N(c2cc(Cl)ccc2C)C1=S
19,176 to 178,CON=C(C)c1cc2c(Cl)cc(F)c(-n3c(=O)cc(C(F)(F)F)n(C)c3=O)c2o1
20,120 to 122,O=C(O)C=CC=CCCCCCc1cccc2cncn12

# The remaining lines, values behind:
row,SMILES,melting point [°C]
1,c1ccc(-c2nc3ncccc3[nH]2)nc1,139 to 142
2,O=C(Nc1ccc2ccc(Cl)nc2n1)c1ccc(Br)o1,285
3,CC1(C)SC(=S)N(Cc2ccco2)C(=O)C1NC(=O)c1ccccc1 (stereo not drawn),168 to 169
4,CS(=O)(=O)c1ccc(-c2c(-c3ccccc3)c(=O)c2=O)cc1,139 to 140
5,O=C(Cc1cccc(Br)c1)Nc1cccc(C(=O)NO)c1,184 to 186
6,O=C1N(Nc2ccccc2)C(=S)OC12c1ccccc1-c1ccccc12,187 to 189
7,O=C1Nc2ccc(Cl)cc2C1(O)Cc1ccccc1 (stereo not drawn),204 to 205
8,CN1CCC2(CC1)Nc1ccccc1S2,135 to 140
9,O=c1c2cc(F)c(N3CCCC3)nc2n(-c2ccc(F)cc2)c(=O)n1O,172 to 174
10,Clc1nc(NCc2ccc(-c3ccccn3)cc2)c2[nH]cnc2n1,> 250
11,O=C(NCCCCCCOC(=O)N1CCC2(CCCC2)CC1)OC1CCN(C(=O)Oc2cccc(Oc3ccccc3)c2)CC1,72 to 120
12,Nc1c(F)c(F)[nH]c(=O)c1F,199 to 201
13,O=C(O)c1cn(C2CC2)c2c(C(F)(F)F)c(N3CCN(c4ncccn4)CC3)c(F)cc2c1=O,285 to 287
14,CC(C)(C)OC(=O)NC[C@H]1CN(c2ccc3c(c2)CCCCC3=O)C(=O)O1,155 to 157
15,O=C1c2c(Cl)cccc2-n2cnc(-c3noc(CN4CCCC4)n3)c2[C@@H]2CCN12,117 to 120
16,CCC1(c2ccccc2)CC(N2C(=O)c3ccccc3C2=O)C(=O)NC1=O (stereo not drawn),174 to 177
17,CCOc1cc(N)c(Cl)cc1C(=O)NCC1CN(Cc2ccccc2)CCCO1 (stereo not drawn),180 to 183
18,CN1CCN(C(=O)c2cc3ccnc(Cl)c3[nH]2)CC1,230 to 232
19,CCCOc1cc(C=CC(=O)N2CCN(c3ccc(NC(=N)c4cccs4)cc3)CC2)cc(OCCC)c1O,72 to 73
20,CCN(CC)C(=O)c1cc(OC)cc(OC)c1-c1ccccc1,117 to 118

row,SMILES,melting point [°C]
1,COc1cc2c(cc1-c1nc3cc(Cl)ccc3o1)oc1ccccc12,191 to 193
2,O=C(NCc1cc(C(F)(F)F)cc(C(F)(F)F)c1)c1c(-c2ccccc2)c2ccccc2[nH]c1=O,251 to 252
3,O=C1CCC(c2cccc(C(F)(F)F)c2)=NN1,211 to 214
4,CC(=O)OC[C@H]1O[C@@H](c2ccc(C)c(Cc3ccc(-c4ccc(F)cc4)s3)c2)[C@H](OC(C)=O)[C@@H](OC(C)=O)[C@@H]1OC(C)=O,160 to 170
5,CCCCNc1cc(C(=O)O)cc(S(=O)(=O)NCCCC)c1Oc1ccccc1,184 to 185
6,COc1ccc(Sc2[nH]c3cccc4c3c2CC2C4C=C(C)CN2C)cc1 (stereo not drawn),> 250
7,Cc1cccc(-c2n[nH]cc2-c2ccc(F)c(-c3ccc[nH]3)c2)n1,141 to 142
8,CCCCn1nc(C(F)(F)CCC)nc1Cc1ccc(-c2ccccc2-c2nnn[nH]2)nc1,135 to 136
9,CCOC(=O)C1Cc2cc(OC)c(OC)cc2C(c2ccccc2)N1C(=O)CNC(=O)OC(C)(C)C (stereo not drawn),166 to 167
10,N#CSCC(I)=C(I)CBr,84 to 86
11,BrC1=C(Br)C(Br)(Br)C(Br)=C1Br,87 to 88
12,Cc1ccc(Oc2c(C)c(NC(=O)CC(C)(C)C)c(C)c3c2OC(C)(C)C3)cc1,182 to 184
13,COc1ccc2c(c1)CC(N(C)CCCN1CCc3cc(OC)c(OC)cc3NC1=O)CC2 (stereo not drawn),163 to 165
14,N#Cc1cc(-c2c3ccccc3cc3sc4ccccc4c23)ccc1O,231 to 232
15,CCOC(=O)c1cn(C2CC2)c2cc(C3CCN(C(C)=O)CC3)c(F)cc2c1=O,195 to 201
16,CC1(C)CCc2c(N3CCOCC3)nc3sc4c(NCc5cccc6ccccc56)ncnc4c3c2C1,266 to 267
17,O=C(C1=CNCCS1)c1ccc(F)cc1,212 to 214
18,O=C1NC(=O)C2(N1)C(=O)N(Cc1cc(Cl)c(Br)c(Cl)c1)c1ccccc12 (stereo not drawn),290 to 292
19,CC(C)n1nc(-c2nc(S(C)(=O)=O)c(N)nc2-c2ccccc2)ccc1=O,249 to 251
20,Cc1ccc(S(=O)(=O)N2[C@@H](C#N)CC[C@H]2c2ccc(F)cc2)cc1 (racemic),128

row,SMILES,melting point [°C]
1,CNC(=O)NS(=O)(=O)c1cc2c(cc1OC)OCC(NC(=O)c1cc(F)ccc1OC)C2 (stereo not drawn),260
2,CC(C)c1cccc(C(C)C)c1NC(=NCc1cccc(CCl)c1)Nc1c(C(C)C)cccc1C(C)C,122 to 124
3,CC12C=CC(=O)C(N)=C1C=CC1C2CCC2(C)C(=O)CCC12 (stereo not drawn),206 to 208
4,Cc1ccc2c(c1)C=Cc1cc(C)ccc1C2c1cn(Cc2nc(C(=O)Nc3nc(CC(=O)O)cs3)cs2)c(=O)[nH]c1=S,200 to 205
5,CO[C@]12C[C@@H](CCN3CCC(O)(c4ccc(Cl)cc4)CC3)CN(C)[C@@H]1Cc1c[nH]c3cccc2c13,133 to 139
6,COc1cc2c(c3c1OC(C)(C)C3)C(c1ccn(Cc3ccc(C(=O)Nc4ccncc4)cc3)c(=O)c1)=NC(C)(C)C2,144 to 146
7,O=C(Cc1ccc(F)cc1)c1ccc(F)cc1,91 to 93
8,NS(=O)(=O)c1cccc(-c2cc(-c3nc(-c4ccc(C(F)(F)F)nc4)cc(C(F)(F)F)n3)ccn2)c1,258
9,CCCCC12CCC3=C(CCc4cc(OC)ccc43)C1CCC2O (stereo not drawn),90 to 100
10,CCCCCCCCCCCc1nnc2n1-c1ccccc1C(c1ccccc1)OC2 (stereo not drawn),83 to 84
11,O=S(=O)(Oc1ccc(OCc2ccc3ccccc3n2)cc1C1(c2ccccc2)CC2CCC1C2)C(F)(F)F (stereo not drawn),131 to 132
12,"COC(=O)c1cncn1C1c2ccccc2CC1(C)C (single isomer, unassigned; (-))",74 to 76
13,Cc1nnc2n1-c1ccc([N+](=O)[O-])cc1C(c1ccccc1Cl)=NC2(C)C,283
14,CCCCN(CCCC)C(=O)CCCC1(C(=O)NCCC)c2ccccc2-c2ccccc21,109 to 111
15,COc1ccc(-c2ccc(C3C(CCC(O)c4ccc(F)cc4)C(=O)N3c3ccc(F)cc3)cc2)cc1 (stereo not drawn),103
16,COc1ccc(N=Nc2cc(OC)cc(C(C)(C)C)c2O)cc1,125 to 127
17,O=C(CCCCCCC(=O)c1ccc(O)cc1)c1ccc(O)cc1,196 to 198
18,Cc1cccc(C)c1C(=O)NCC(=O)N1c2ccccc2N(Cc2ccccc2)C(=O)[C@H]2CCC[C@H]21 (relative stereo),208 to 209
